# Assay results reported in patent publication US7662832B2, “Pyrrolo[2,3-c]pyridine derivatives and processes for the preparation thereof” (priority 2004, dated 2010).
# Counter-ions that a name gives are not always drawn.
# Target: Proton Pump (H^+/K^+-ATPase) (Sus scrofa, UniProt P19156)
# Assay: Inhibitory effects on proton pump (H^+/K^+-ATPase) activity
# Type: biochemical
# Settings: hog gastric vesicles; K^+ stimulated H^+/K^+-ATPase activity; 30 minutes at 37° C.
# Sequence of Proton Pump (H^+/K^+-ATPase) (P19156 2-1034 limits assumed): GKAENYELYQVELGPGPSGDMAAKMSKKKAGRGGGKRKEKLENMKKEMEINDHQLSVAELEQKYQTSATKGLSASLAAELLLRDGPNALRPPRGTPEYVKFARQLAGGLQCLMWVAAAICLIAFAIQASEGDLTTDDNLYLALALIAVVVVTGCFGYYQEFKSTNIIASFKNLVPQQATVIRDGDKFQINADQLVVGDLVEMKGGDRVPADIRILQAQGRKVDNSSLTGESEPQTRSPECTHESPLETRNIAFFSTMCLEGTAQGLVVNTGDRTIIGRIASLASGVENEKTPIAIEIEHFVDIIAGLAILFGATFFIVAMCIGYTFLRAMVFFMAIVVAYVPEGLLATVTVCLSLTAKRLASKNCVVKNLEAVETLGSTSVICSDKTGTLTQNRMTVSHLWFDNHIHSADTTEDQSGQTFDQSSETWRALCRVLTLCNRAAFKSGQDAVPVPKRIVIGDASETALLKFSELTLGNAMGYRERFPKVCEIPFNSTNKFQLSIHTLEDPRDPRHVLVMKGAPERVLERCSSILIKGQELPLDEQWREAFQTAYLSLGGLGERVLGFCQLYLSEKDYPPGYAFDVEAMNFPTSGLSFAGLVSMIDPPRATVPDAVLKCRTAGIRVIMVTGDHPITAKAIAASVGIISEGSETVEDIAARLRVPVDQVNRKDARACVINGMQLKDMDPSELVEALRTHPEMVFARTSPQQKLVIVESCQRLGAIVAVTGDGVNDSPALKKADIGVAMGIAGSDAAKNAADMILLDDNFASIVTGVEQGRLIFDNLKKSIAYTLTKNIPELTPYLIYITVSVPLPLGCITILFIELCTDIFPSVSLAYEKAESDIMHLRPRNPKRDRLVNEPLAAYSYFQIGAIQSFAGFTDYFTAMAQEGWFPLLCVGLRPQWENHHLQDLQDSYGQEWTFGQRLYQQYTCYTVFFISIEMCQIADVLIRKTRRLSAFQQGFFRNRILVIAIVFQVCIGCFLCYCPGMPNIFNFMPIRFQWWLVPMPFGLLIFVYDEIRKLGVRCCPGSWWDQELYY
# Sequence of Proton Pump (H^+/K^+-ATPase) (P18434 whole entry partner): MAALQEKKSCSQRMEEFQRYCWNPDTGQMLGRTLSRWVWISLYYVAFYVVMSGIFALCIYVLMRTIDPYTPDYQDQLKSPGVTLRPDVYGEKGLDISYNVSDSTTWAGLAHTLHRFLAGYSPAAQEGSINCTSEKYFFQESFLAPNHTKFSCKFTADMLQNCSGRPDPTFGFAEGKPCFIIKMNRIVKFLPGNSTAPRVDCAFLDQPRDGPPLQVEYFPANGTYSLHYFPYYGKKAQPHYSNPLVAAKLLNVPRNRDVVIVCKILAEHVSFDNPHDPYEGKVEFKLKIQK
row,SMILES,IC50
1,"Cc1c(C)n(CC2OCCO2)c2c(N(C)Cc3ccc(F)cc3)nccc12 [Example 158, 1-(1,3-dioxolan-2-ylmethyl)-7-[N-(4-fluorobenzyl)-N-methyl]amino-2,3-dimethyl-1H-pyrrolo[2,3-c]pyridine hydrochloride]",270 nM
2,"C=CCn1c(C)c(C)c2ccnc(-c3ccc(OC)cc3)c21 [Example 360, 1-allyl-7-(4-methoxyphenyl)-2,3-dimethyl-1H-pyrrolo[2,3-c]pyridine hydrochloride]",278 nM
3,"C=CCn1c(C)c(C)c2ccnc(N3CCc4ccccc4C3)c21 [Example 490, 1-allyl-7-(1,2,3,4-tetrahydroisoquinolin-2-yl)-2,3-dimethyl-1H-pyrrolo[2,3-c]pyridine nitrate]",3 nM
4,"Cc1c(C)n(CC(C)C)c2c(N(C)Cc3ccc(F)cc3)nccc12 [Example 149, 7-[N-(4-fluorobenzyl)-N-methyl]amino-1-isobutyl-2,3-dimethyl-1H-pyrrolo[2,3-c]pyridine hydrochloride]",210 nM
5,"CCN1CCN(C(=O)c2cc3c(C)c(C)n(Cc4ccccc4)c3c(NCc3ccc(F)cc3)n2)CC1 [Example 907, [1-benzyl-7-(4-fluorobenzylamino)-2,3-dimethyl-1H-pyrrolo[2,3-c]pyridin-5-yl]-(4-ethylpiperazin-1-yl)-methanone hydrochloride]",32 nM
6,"CCC1c2ccccc2CCN1c1nccc2c(C)c(C)[nH]c12 (stereo not shown) [Example 574, 2-(2,3-dimethyl-1H-pyrrolo[2,3-c]pyridin-7-yl)-1-ethyl-1,2,3,4-tetrahydroisoquinoline hydrochloride]",420 nM
7,"COCCn1c(C)c(C)c2ccnc(COc3ccc(F)cc3F)c21 [Example 34, 7-(2,4-difluorophenoxymethyl)-1-(2-methoxyethyl)-2,3-dimethyl-1H-pyrrolo[2,3-c]pyridine hydrochloride]",1460 nM
8,"COc1cccc(Cn2c(C)c(C)c3cc(C(=O)N4CCSCC4)nc(N4CCc5ccccc5C4)c32)c1 [Example 784, [7-(3,4-dihydro-1H-isoquinolin-2-yl)-1-(3-methoxybenzyl)-2,3-dimethyl-1H-pyrrolo[2,3-c]pyridin-5-yl]-(thiomorpholin-1-yl)-methanone hydrochloride]",202 nM
9,"Cc1c(C)n(CC2CC2)c2c(COc3ccc(F)cc3F)nccc12 [Example 35, 1-cyclopropylmethyl-7-(2,4-difluorophenoxymethyl)-2,3-dimethyl-1H-pyrrolo[2,3-c]pyridine hydrochloride]",846 nM
10,"Cc1c(C)n(Cc2ccccc2)c2c(CNc3ccc(F)cc3)nccc12 [Example 89, N-(1-benzyl-2,3-dimethyl-1H-pyrrolo[2,3-c]pyridin-7-ylmethyl)-4-fluorophenylamine hydrochloride]",321 nM
11,"Cc1c(C)n(Cc2cccc(F)c2)c2c(N3CCc4ccc(Cl)cc4C3C)nccc12 (stereo not shown) [Example 539, 7-chloro-2-[1-(3-fluorobenzyl)-2,3-dimethyl-1H-pyrrolo[2,3-c]pyridin-7-yl]-1-methyl-1,2,3,4-tetrahydroisoquinoline hydrochloride]",250 nM
12,"C#CCn1c(C)c(C)c2ccnc(-c3ccc4ccccc4c3)c21 [Example 408, 2,3-dimethyl-7-(naphthalen-2-yl)-1-(prop-2-ynyl)-1H-pyrrolo[2,3-c]pyridine hydrochloride]",89 nM
13,"C=CCCn1c(C)c(C)c2cc(C#N)nc(N3CCc4ccccc4C3)c21 [Example 683, 1-(but-3-enyl)-7-(3,4-dihydro-1H-isoquinolin-2-yl)-2,3-dimethyl-1H-pyrrolo[2,3-c]pyridin-5-carbonitrile]",1560 nM
14,"CCCn1c(C)c(C)c2ccnc(NCc3ccccc3Cl)c21 [Example 231, 7-(2-chlorobenzylamino)-2,3-dimethyl-1-propyl-1H-pyrrolo[2,3-c]pyridine hydrochloride]",138 nM
15,"COc1cccc(Cn2c(C)c(C)c3ccnc(-c4ccc(SC)cc4)c32)c1 [Example 266, 1-(3-methoxybenzyl)-2,3-dimethyl-7-(4-methylsulfanylphenyl)-1H-pyrrolo[2,3-c]pyridine hydrochloride]",140 nM
16,"CCNC(=O)c1cc2c(C)c(C)n(Cc3ccccc3)c2c(N2CCc3ccccc3C2)n1 [Example 765, 1-benzyl-7-(3,4-dihydro-1H-isoquinolin-2-yl)-2,3-dimethyl-N-ethyl-1H-pyrrolo[2,3-c]pyridin-5-carboxamide]",356 nM
17,"COc1cccc(Cn2c(C)c(C)c3ccnc(COc4ccc(Cl)cc4)c32)c1 [Example 45, 7-(4-chlorophenoxymethyl)-1-(3-methoxybenzyl)-2,3-dimethyl-1H-pyrrolo[2,3-c]pyridine hydrochloride]",71 nM
18,"Cc1ccc(CNc2nccc3c(C)c(C)n(CC4CC4)c23)cc1 [Example 204, 1-cyclopropylmethyl-2,3-dimethyl-7-(4-methylbenzylamino)-1H-pyrrolo[2,3-c]pyridine hydrochloride]",210 nM
19,"Cc1ccc(-c2nccc3c(C)c(C)n(Cc4ccc(Cl)cc4)c23)cc1 [Example 283, 1-(4-chlorobenzyl)-2,3-dimethyl-7-(p-tolyl)-1H-pyrrolo[2,3-c]pyridine hydrochloride]",1740 nM
20,"CCn1c(C)c(C)c2ccnc(N3CCc4cc(F)ccc4C3C)c21 (stereo not shown) [Example 562, 2-(1-ethyl-2,3-dimethyl-1H-pyrrolo[2,3-c]pyridin-7-yl)-6-fluoro-1-methyl-1,2,3,4-tetrahydroisoquinoline hydrochloride]",58 nM
21,"CSc1ccc(-c2nccc3c(C)c(C)n(Cc4ccccc4)c23)cc1 [Example 268, 1-benzyl-2,3-dimethyl-7-(4-methylsulfanylphenyl)-1H-pyrrolo[2,3-c]pyridine hydrochloride]",130 nM
22,"C=CCn1c(C)c(C)c2ccnc(N3CCc4ccc(Cl)cc4C3C)c21 (stereo not shown) [Example 531, 7-chloro-2-(1-allyl-2,3-dimethyl-1H-pyrrolo[2,3-c]pyridin-7-yl)-1-methyl-1,2,3,4-tetrahydroisoquinoline hydrochloride]",190 nM
23,"Cc1c(C)n(Cc2ccc(C(F)(F)F)cc2)c2c(N3CCc4ccccc4C3)nccc12 [Example 500, 7-(1,2,3,4-tetrahydroisoquinolin-2-yl)-1-(4-trifluoromethylbenzyl)-2,3-dimethyl-1H-pyrrolo[2,3-c]pyridine hydrochloride]",270 nM

# Further lines, results first:
row,IC50,SMILES
1,31 nM,"CCn1c(C)c(C)c2cc(C(=O)N3CCC(CO)CC3)nc(N3CCc4ccccc4C3)c21 [Example 805, [7-(3,4-dihydro-1H-isoquinolin-2-yl)-1-ethyl-2,3-dimethyl-1H-pyrrolo[2,3-c]pyridin-5-yl]-(4-hydroxymethylpiperidin-1-yl)-methanone hydrochloride]"
2,23 nM,"CCn1c(C)c(C)c2cc(C(=O)N3CCCC(O)C3)nc(N3CCc4ccccc4C3)c21 (stereo not shown) [Example 807, [7-(3,4-dihydro-1H-isoquinolin-2-yl)-1-ethyl-2,3-dimethyl-1H-pyrrolo[2,3-c]pyridin-5-yl]-(3-hydroxypiperidin-1-yl)-methanone hydrochloride]"
3,21 nM,"Cc1c(C)n(Cc2ccccc2)c2c(N3CCc4ccccc4C3)nc(C(=O)N3CCNCC3)cc12 [Example 812, [1-benzyl-7-(3,4-dihydro-1H-isoquinolin-2-yl)-2,3-dimethyl-1H-pyrrolo[2,3-c]pyridin-5-yl]-(piperazin-1-yl)-methanone hydrochloride]"
4,305 nM,"Cc1c(C)n(Cc2cccc(F)c2)c2c(N3CCc4ccccc4C3)nc(C(=O)N3CCCCC3)cc12 [Example 796, [7-(3,4-dihydro-1H-isoquinolin-2-yl)-1-(3-fluorobenzyl)-2,3-dimethyl-1H-pyrrolo[2,3-c]pyridin-5-yl]-(piperidin-1-yl)-methanone hydrochloride]"
5,480 nM,"COCCn1c(C)c(C)c2cc(C(=O)n3ccnc3)nc(N3CCc4ccccc4C3)c21 [Example 842, [7-(3,4-dihydro-1H-isoquinolin-2-yl)-1-(2-methoxyethyl)-2,3-dimethyl-1H-pyrrolo[2,3-c]pyridin-5-yl]-(imidazol-1-yl)-methanone hydrochloride]"
6,216 nM,"COc1cccc(Cn2c(C)c(C)c3cc(C(=O)N4CCC(C)CC4)nc(N4CCc5ccccc5C4)c32)c1 [Example 823, [7-(3,4-dihydro-1H-isoquinolin-2-yl)-1-(3-methoxybenzyl)-2,3-dimethyl-1H-pyrrolo[2,3-c]pyridin-5-yl]-(4-methylpiperidin-1-yl)-methanone hydrochloride]"
7,34 nM,"CCN1CCN(C(=O)c2cc3c(C)c(C)n(CC4CC4)c3c(N3CCc4ccccc4C3)n2)CC1 [Example 818, [1-cyclopropylmethyl-7-(3,4-dihydro-1H-isoquinolin-2-yl)-2,3-dimethyl-1H-pyrrolo[2,3-c]pyridin-5-yl]-(4-ethylpiperazin-1-yl)-methanone hydrochloride]"
8,24 nM,"Cc1c(C)n(CC2CC2)c2c(N3CCc4ccccc4C3)nc(C(=O)N3CCN(C)CC3)cc12 [Example 817, [1-cyclopropylmethyl-7-(3,4-dihydro-1H-isoquinolin-2-yl)-2,3-dimethyl-1H-pyrrolo[2,3-c]pyridin-5-yl]-(4-methylpiperazin-1-yl)-methanone hydrochloride]"
9,37 nM,"CC(C)=CCn1c(C)c(C)c2cc(C(=O)N3CCN(C)CC3)nc(N3CCc4ccccc4C3)c21 [Example 834, [7-(3,4-dihydro-1H-isoquinolin-2-yl)-2,3-dimethyl-1-(3-methylbut-2-enyl)-1H-pyrrolo[2,3-c]pyridin-5-yl]-(4-methylpiperazin-1-yl)-methanone hydrochloride]"
10,1.1 nM,"CCn1c(C)c(C)c2cc(C(=O)N3CCCCC3)nc(N3CCc4ccccc4C3)c21 [Example 787, [7-(3,4-dihydro-1H-isoquinolin-2-yl)-1-ethyl-2,3-dimethyl-1H-pyrrolo[2,3-c]pyridin-5-yl]-(piperidin-1-yl)-methanone hydrochloride]"
11,62 nM,"Cc1c(C)n(Cc2cccc(F)c2)c2c(N3CCc4ccccc4C3)nc(C(=O)N3CCOCC3)cc12 [Example 779, [7-(3,4-dihydro-1H-isoquinolin-2-yl)-1-(3-fluorobenzyl)-2,3-dimethyl-1H-pyrrolo[2,3-c]pyridin-5-yl]-(morpholin-4-yl)-methanone hydrochloride]"
